Test systems include OVCAR-3 ovarian; SNB-75 CNS; CAKI-1 renal; HOP-92 NSCLC; NCI-H226 lung; SF-295 CNS; UO-31 renal; SW-620 colon; HS 578T breast.
Common to all, as to assay: NCI anticancer screen, dose series, 48 h

For 14 compounds, TGI and GI50 results are on record in PubChem BioAssay (NCI).

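Following 48 hours of exposure in 96-well plates, responses at five concentrations were used to interpolate endpoints linearly. GI50 marks 50% less growth. The concentration for full growth arrest is given as TGI.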

For `Cc1cn(C2C=CC(=O)C(C)O2)c(=O)[nH]c1=O` (configuration not stated), the TGI is 31.4 µM in the test with OVCAR-3 ovarian; 29.1 µM in the test on SNB-75 CNS; 31.5 µM in the test on CAKI-1 renal; 29.5 µM in the test on HOP-92 NSCLC; 42.1 µM in the test on NCI-H226 lung; 31.3 µM in the test on SF-295 CNS. Moreover, the TGI in the test on UO-31 renal amounted to 27.7 µM; in the test with SW-620 colon, 28.8 µM.
As to `COc1cc(NCC(C#N)C#N)ccc1N=Nc1ccc([N+](=O)[O-])cc1`, the TGI with OVCAR-3 ovarian, in the test on SNB-75 CNS, with CAKI-1 renal, with NCI-H226 lung, in the test on SF-295 CNS and in the test with UO-31 renal was over 100 µM each time. In addition, the TGI with SW-620 colon is over 100 µM.
On to `O=C1C2C(C(=O)[N]1[Hg][c]1ccccc1)C1(Cl)C(Cl)=C(Cl)C2(Cl)C1(Cl)Cl` (configuration not stated), for which the GI50 in the test with OVCAR-3 ovarian is 0.229 µM; in the test with SNB-75 CNS it was 1.33 µM; with CAKI-1 renal, 1.67 µM; with HOP-92 NSCLC, 1.87 µM; with NCI-H226 lung it was 1.59 µM; in the test with HS 578T breast, 0.771 µM. The GI50 was 12.4 µM in the test on SF-295 CNS, 1.73 µM in the test with UO-31 renal and 0.464 µM in the test on SW-620 colon. Moreover, the TGI in the test with OVCAR-3 ovarian is 0.467 µM; in the test with SNB-75 CNS, 2.92 µM; in the test on CAKI-1 renal, 4.99 µM; with HOP-92 NSCLC, 3.97 µM; in the test with NCI-H226 lung it was 4.18 µM; in the test with HS 578T breast it was over 100 µM. Also, the TGI worked out at 36 µM in the test on SF-295 CNS, 3.57 µM in the test with UO-31 renal and 1.8 µM in the test on SW-620 colon.
Turning to `Cn1cc2ccccc2c1-c1nc(F)nc(Oc2ccc3c(c2)CC[C@@H]2C3CC[C@]3(C)C(O)CCC23)n1` (some centres not stated), the TGI with OVCAR-3 ovarian was 31.8 µM; in the test on SNB-75 CNS, 28.6 µM; in the test on HOP-92 NSCLC it was 44.3 µM; with NCI-H226 lung it was over 100 µM; with SF-295 CNS, 30.2 µM; in the test with UO-31 renal, 63.6 µM. The compound also had a TGI in the test on SW-620 colon of 43.5 µM.
In the case of `CSC(=S)N(C)NC(=O)c1cccc(C(=O)NN(C)C(=S)SC)n1`, the TGI in the test on SNB-75 CNS was 98 µM; in the test on HOP-92 NSCLC it was 55 µM; in the test on NCI-H226 lung, 81.5 µM; in the test with SF-295 CNS, 16 µM; in the test with SW-620 colon, over 100 µM.
As to `O=C(N/C(=C\c1ccc([N+](=O)[O-])cc1)c1nc2[nH]c(=S)[nH]c(=O)c2[nH]1)c1ccccc1`, the TGI with OVCAR-3 ovarian, with CAKI-1 renal, with HOP-92 NSCLC, with SF-295 CNS, with UO-31 renal and with SW-620 colon was over 100 µM each time.
For the compound `COc1cc(C2[C@H]3C(=O)N(c4ccc(Cc5ccc(N6C(=O)[C@@H]7ON(c8ccccc8)C(c8cc(OC)c(OC)c(OC)c8)[C@@H]7C6=O)cc5)cc4)C(=O)[C@H]3ON2c2ccccc2)cc(OC)c1OC` (some centres not stated), the TGI in the test on OVCAR-3 ovarian, in the test on SNB-75 CNS, in the test on CAKI-1 renal, with NCI-H226 lung, in the test with SF-295 CNS and with UO-31 renal was over 100 µM throughout. This compound displayed a TGI in the test on SW-620 colon of over 100 µM.
As to `COC1=NN2C(OC)(c3ccccc3)c3c(-c4ccccc4)sc(-c4ccccc4)c3C2(c2ccccc2)S1` (configuration not stated), the TGI is over 10 µM with OVCAR-3 ovarian; over 100 µM in the test on SNB-75 CNS; over 100 µM with CAKI-1 renal; over 100 µM in the test on HOP-92 NSCLC; over 100 µM in the test with SF-295 CNS; over 100 µM in the test with UO-31 renal. Further, the TGI with SW-620 colon is over 100 µM.
In the case of `CSc1nc2c(nc(N)n2C2OCC(O)C(O)C2O)c(=O)[nH]1` (configuration not stated), the TGI in the test on OVCAR-3 ovarian, in the test on SNB-75 CNS, in the test on CAKI-1 renal, in the test with HOP-92 NSCLC, in the test with NCI-H226 lung and with SF-295 CNS was over 100 µM throughout. In addition, the TGI with UO-31 renal and in the test on SW-620 colon was over 100 µM each time.
In the case of `CC(C)C(/C=C/c1ccccc1)=N\NC(=O)N/N=C(/C=C/c1ccccc1)C(C)C`, the TGI in the test with SNB-75 CNS was 92.5 µM; in the test with CAKI-1 renal, 30.6 µM; with HOP-92 NSCLC, 91.3 µM; in the test on NCI-H226 lung, 55.4 µM; in the test on SF-295 CNS, over 100 µM; in the test with UO-31 renal, 93 µM. The TGI in the test with SW-620 colon was over 100 µM.
As to `CCC[CH2][Sn]1([CH2]CCC)[O]C(=O)C[S]1`, the GI50 in the test with OVCAR-3 ovarian is 1.57 µM; in the test with SNB-75 CNS it was 1.35 µM; with CAKI-1 renal, 0.759 µM; in the test on HOP-92 NSCLC, 1.84 µM; in the test on NCI-H226 lung it was 1.93 µM; in the test on SF-295 CNS, 3.61 µM. Further, the GI50 is 2.48 µM in the test on UO-31 renal and 0.984 µM in the test on SW-620 colon. The TGI with OVCAR-3 ovarian is 3.03 µM; with SNB-75 CNS, 3.27 µM; in the test on CAKI-1 renal it was 3.47 µM; with HOP-92 NSCLC it was 3.95 µM; in the test with NCI-H226 lung it was 3.77 µM; in the test with SF-295 CNS, 13 µM. Also, the TGI in the test with UO-31 renal stood at 7.29 µM; in the test on SW-620 colon it was 3.13 µM.
As for `CC1(C)CCc2cc3c(cc2O1)OC(C)(C)C1c2c(ccc4c2CCC(C)(C)O4)OC31` (configuration not stated), the TGI in the test with OVCAR-3 ovarian, in the test with CAKI-1 renal, in the test with HOP-92 NSCLC, in the test with NCI-H226 lung, in the test with SF-295 CNS and in the test on UO-31 renal was over 100 µM each time. Further, the TGI with SW-620 colon is over 100 µM.
Turning to `O=C1c2cnccc2Cc2cccc3c2N1c1ccccc1S3`, the TGI with OVCAR-3 ovarian turned out to be 44.5 µM; in the test on SNB-75 CNS, 48.5 µM; with CAKI-1 renal, 32.6 µM; in the test with HOP-92 NSCLC, 38.5 µM; with SF-295 CNS it was 63.2 µM; with SW-620 colon it was 97.9 µM.
In the case of `CCOC(=O)CNC(SC)=C(C#N)C#N`, the TGI with OVCAR-3 ovarian, in the test with SNB-75 CNS, with CAKI-1 renal, with HOP-92 NSCLC, in the test with NCI-H226 lung and with SF-295 CNS was over 100 µM in each case. In addition, the TGI with UO-31 renal and with SW-620 colon was over 100 µM throughout.
